The record followed here is patent US10017520B2, “Myc modulators and uses thereof” (Massachusetts Institute of Technology, priority 2014, dated 2018).

The test system of this assay is c-Myc. Nature of the assay: c-Myc reporter gene assay (Qiagen) in HEK293T cells. The assay is classed as cell-based. To be noted: treatment 16 hours, Firefly/Renilla ratio. As for the experimental part: Compound 1's activity against Myc was measured as a Firefly/Renilla ratio, using the Myc reporter assay (Qiagen) in HEK293T cells after treatment with compound 1 for 16 hours. Results are expressed as a mean+/−SD (n=3). SD: standard deviation.
Select compounds described herein that were SMM assay positives were evaluated in several versions of a c-Myc reporter gene assay, including a commercial assay from Qiagen. The compounds' activities against c-Myc were measured as a Firefly/Renilla ratio, using the Myc reporter assay (Qiagen) in HEK293T cells after treatment with the compounds for 16 hours.
(A reporter such as luciferase makes a cellular process visible.)

What is called IC50 is the point on the concentration scale where inhibition reaches its midpoint. On to `CC(C)N1C(=O)S/C(=C\c2ccc(Sc3nc4ccccc4[nH]3)s2)C1=O` [Compound 11, (Z)-5-((5-((1H-benzo[d]imidazol-2-yl)thio)thiophen-2-yl)methylene)-3-isopropylthiazolidine-2,4-dione], for which the IC50 (Homo sapiens, HEK-293T) was 1.62 µM.
On to `O=C(O)CN1C(=O)S/C(=C\c2ccc(Sc3nc4ccccc4[nH]3)o2)C1=O` [Compound 13, (Z)-2-(5-((5-((1H-benzo[d]imidazol-2-yl)thio)furan-2-yl)methylene)-2,4-dioxothiazolidin-3-yl)acetic acid], for which the “c-Myc reporter assay IC50” value is “inactive”.
Regarding `CC(C)(C)OC(=O)CN1C(=O)S/C(=C\c2ccc(Sc3nc4ccccc4[nH]3)o2)C1=O` [Compound 14, (Z)-tert-butyl 2-(5-((5-((1H-benzo[d]imidazol-2-yl)thio)furan-2-yl)methylene)-2,4-dioxothiazolidin-3-yl)acetate], the IC50 (Homo sapiens, HEK-293T, 16 h) was 1.96 µM.
As for `COC(=O)CN1C(=O)S/C(=C\c2ccc(Sc3nc4ccccc4[nH]3)o2)C1=O` [Compound 15, (Z)-methyl 2-(5-((5-((1H-benzo[d]imidazol-2-yl)thio)furan-2-yl)methylene)-2,4-dioxothiazolidin-3-yl)acetate], the IC50 (Homo sapiens, HEK-293T, 16 h) stood at 3.26 µM.
The same measure, in the same setting: in the case of `CC(C)N1C(=O)S/C(=C\c2ccc(Sc3ncc[nH]3)o2)C1=O` [Compound 16, (Z)-5-((5-((1H-imidazol-2-yl)thio)furan-2-yl)methylene)-3-isopropylthiazolidine-2,4-dione] it was 20.8 µM; in that of `CC(C)N1C(=O)S/C(=C\c2ccc(Sc3ccccn3)o2)C1=O` [Compound 17, (Z)-3-isopropyl-5-((5-(pyridin-2-ylthio)furan-2-yl)methylene)thiazolidine-2,4-dione], 7.67 µM.
`CC(C)N1C(=O)S/C(=C\c2ccc(Sc3nc4ccccc4n3C)o2)C1=O` [Compound 18, (Z)-3-isopropyl-5-((5-((1-methyl-1H-benzo[d]imidazol-2-yl)thio)furan-2-yl)methylene)thiazolidine-2,4-dione]: the IC50 (Homo sapiens, HEK-293T, 16 h) is 1.67 µM.
With `NCCCN1C(=O)S/C(=C\c2ccc(Sc3nc4ccccc4[nH]3)o2)C1=O` [Compound 19, (Z)-5-((5-((1H-benzo[d]imidazol-2-yl)thio)furan-2-yl)methylene)-3-(3-aminopropyl)thiazolidine-2,4-dione 2,2,2-trifluoroacetate], the IC50 is 6.52 µM. In addition, the IC50 (Homo sapiens, HEK-293T, 16 h) turned out to be 7.3 µM.
For the compound `O=C(NCCCN1C(=O)S/C(=C\c2ccc(Sc3nc4ccccc4[nH]3)o2)C1=O)Nc1ccccc1` [Compound 20, (Z)-1-(3-(5-((5-((1H-benzo[d]imidazol-2-yl)thio)furan-2-yl)methylene)-2,4-dioxothiazolidin-3-yl)propyl)-3-phenylurea], the IC50 (Homo sapiens, HEK-293T, 16 h) worked out at 1.22 µM.
Consider `CCNC(=O)NCCCN1C(=O)S/C(=C\c2ccc(Sc3nc4ccccc4[nH]3)o2)C1=O` [Compound 21], for which the 50% inhibitory concentration (IC50) (Homo sapiens, HEK-293T, 16 h) amounted to 6.77 µM.
Same read-out and setting: with `CCC(C)N1C(=O)S/C(=C\c2ccc(Sc3nc4ccccc4[nH]3)o2)C1=O` (centres unmarked) [Compound 31] the figure was 2.22 µM; with `COC(=O)C(C)N1C(=O)S/C(=C\c2ccc(Sc3nc4ccccc4[nH]3)o2)C1=O` (centres unmarked) [Compound 32], 6.24 µM.
In the case of `O=C(CN1C(=O)S/C(=C\c2ccc(Sc3nc4ccccc4[nH]3)o2)C1=O)N1CCN(c2ccccc2)CC1` [Compound 34], the IC50 (Homo sapiens, HEK-293T, 16 h) worked out at 7.01 µM.
Turning to `O=C1S/C(=C\c2ccc(Sc3nc4ccccc4[nH]3)o2)C(=O)N1c1ccccc1` [Compound 35], the IC50 (Homo sapiens, HEK-293T, 16 h) stood at 11.9 µM.
Take `CC(/C=C1\SC(=O)N(C(C)C)C1=O)=C\c1ccccc1` [Compound 37]: the IC50 (Homo sapiens, HEK-293T, 16 h) is more than 100 µM.
Take `COC(=O)C(C)N1C(=O)S/C(=C\C=C\c2ccco2)C1=O` (centres unmarked) [Compound 38]: the IC50 (Homo sapiens, HEK-293T, 16 h) was more than 100 µM.
`Cc1ccc(Sc2ccc(/C=C3\SC(=O)N(C(C)C)C3=O)o2)cc1` [Compound 39]: the IC50 (Homo sapiens, HEK-293T, 16 h) was more than 100 µM.
Regarding `O=C(O)c1ccc(Sc2nc3ccccc3[nH]2)o1` [Compound 41, 5-((1H-benzo[d]imidazol-2-yl)thio)furan-2-carboxylic acid], the “c-Myc reporter assay IC50” value is recorded as “non active”.
For the compound `O=C(Nc1ccccc1)c1ccc(Sc2nc3ccccc3[nH]2)o1` [Compound 42, 5-((1H-benzo[d]imidazol-2-yl)thio)-N-phenylfuran-2-carboxamide], the half-maximal inhibitory concentration (IC50) (Homo sapiens, HEK-293T, 16 h) worked out at 3.32 µM.
As for `CC(C)NC(=O)c1ccc(Sc2nc3ccccc3[nH]2)o1` [Compound 43, 5-((1H-benzo[d]imidazol-2-yl)thio)-N-isopropylfuran-2-carboxamide], under “Homo sapiens, HEK-293T, 16 h”, the IC50 turned out to be 7.9 µM.
`O=C(c1ccc(Sc2nc3ccccc3[nH]2)o1)N1CCOCC1` [Compound 44, (5-((1H-benzo[d]imidazol-2-yl)thio)furan-2-yl)(morpholino)methanone]: the “c-Myc reporter assay IC50” value is “non active”.
In the case of `c1ccc(NCc2ccc(Sc3nc4ccccc4[nH]3)o2)cc1` [Compound 45, N-((5-((1H-benzo[d]imidazol-2-yl)thio)furan-2-yl)methyl)aniline], the half-inhibitory concentration (IC50) (Homo sapiens, HEK-293T, 16 h) was 4.66 µM.
For the compound `CC(C)NCc1ccc(Sc2nc3ccccc3[nH]2)o1` [Compound 46], under “Homo sapiens, HEK-293T, 16 h”, the concentration for half-maximal inhibition (IC50) stood at 57.5 µM.
`c1ccc2[nH]c(Sc3ccc(CN4CCOCC4)o3)nc2c1` [Compound 47, 4-((5-((1H-benzo[d]imidazol-2-yl)thio)furan-2-yl)methyl)morpholine]: the 50% inhibitory concentration (IC50) (Homo sapiens, HEK-293T, 16 h) was found to be 32.9 µM.
In the case of `CCN1CCN(Cc2ccc(Sc3nc4ccccc4[nH]3)o2)CC1` [Compound 48, 2-((5-((4-ethylpiperazin-1-yl)methyl)furan-2-yl)thio)-1H-benzo[d]imidazole], under “Homo sapiens, HEK-293T, 16 h”, the half-maximal inhibitory concentration (IC50) was 10.2 µM.
On the same count and under the same terms, with `CN(C)Cc1ccc(Sc2nc3ccccc3[nH]2)o1` [Compound 49, 1-(5-((1H-benzo[d]imidazol-2-yl)thio)furan-2-yl)-N,N-dimethylmethanamine] the figure was 59.4 µM; with `COC(=O)CNCc1ccc(Sc2nc3ccccc3[nH]2)o1` [Compound 50, Methyl 2-(((5-((1H-benzo[d]imidazol-2-yl)thio)furan-2-yl)methyl)amino)acetate], 75.9 µM.
For the compound `COC(=O)c1ccc(Sc2nc3ccccc3[nH]2)o1` [Compound 51, Methyl 5-((1H-benzo[d]imidazol-2-yl)thio)furan-2-carboxylate], the “c-Myc reporter assay IC50” value is given as “non active”.
Turning to `CN1C(=O)C(=Cc2ccc(Sc3nc4ccccc4[nH]3)o2)C(=O)N(C)C1=O` [Compound 53, 5-((5-((1H-benzo[d]imidazol-2-yl)thio)furan-2-yl)methylene)-1,3-dimethylpyrimidine-2,4,6(1H,3H,5H)-trione], for the setting “Homo sapiens, HEK-293T”, the IC50 amounted to 26.8 µM.
With `O=C1NC(=O)C(=Cc2ccc(Sc3nc4ccccc4[nH]3)o2)C(=O)N1` [Compound 54, 5-((5-((1H-benzo[d]imidazol-2-yl)thio)furan-2-yl)methylene)pyrimidine-2,4,6(1H,3H,5H)-trione], the “c-Myc reporter assay IC50” value was “non active”.
Consider `CC(C)N1C(=O)S/C(=C\c2ccc(Sc3nc4ccc(OC(F)(F)F)cc4[nH]3)o2)C1=O` [Compound 56, (Z)-3-isopropyl-5-((5-((6-(trifluoromethoxy)-1H-benzo[d]imidazol-2-yl)thio)furan-2-yl)methylene)thiazolidine-2,4-dione], for which the concentration for half-maximal inhibition (IC50) (Homo sapiens, HEK-293T, 16 h) worked out at 0.44 µM.
With `CC(C)N1C(=O)S/C(=C\c2ccc(Sc3nc4ccc([N+](=O)[O-])cc4[nH]3)o2)C1=O` [Compound 57, (Z)-3-isopropyl-5-((5-((6-nitro-1H-benzo[d]imidazol-2-yl)thio)furan-2-yl)methylene)thiazolidine-2,4-dione], the IC50 (Homo sapiens, HEK-293T, 16 h) was determined as 0.36 µM.
Turning to `CC(=O)c1ccc2nc(Sc3ccc(/C=C4\SC(=O)N(C(C)C)C4=O)o3)[nH]c2c1` [Compound 58, (Z)-5-((5-((6-acetyl-H-benzo[d]imidazol-2-yl)thio)furan-2-yl)methylene)-3-isopropylthiazolidine-2,4-dione], the IC50 (Homo sapiens, HEK-293T, 16 h) was found to be 0.26 µM.
Consider `CC(C)N1C(=O)S/C(=C\c2ccc(Sc3nc4ccc(N)cc4[nH]3)o2)C1=O` [Compound 60, (Z)-5-((5-((6-amino-1H-benzo[d]imidazol-2-yl)thio)furan-2-yl)methylene)-3-isopropylthiazolidine-2,4-dione], for which the IC50 (Homo sapiens, HEK-293T, 16 h) came out at 4.56 µM.
With `CC(C)N1C(=O)S/C(=C\c2ccc(Sc3nc4ccc(NC(=O)c5ccccc5)cc4[nH]3)o2)C1=O` [Compound 61, (Z)—N-(2-((5-((3-isopropyl-2,4-dioxothiazolidin-5-ylidene)methyl)furan-2-yl)thio)-1H-benzo[d]imidazol-6-yl)benzamide], the IC50 (Homo sapiens, HEK-293T, 16 h) was found to be 0.4 µM.
The same measure, in the same setting: with `CC(=O)Nc1ccc2nc(Sc3ccc(/C=C4\SC(=O)N(C(C)C)C4=O)o3)[nH]c2c1` [Compound 62, (Z)—N-(2-((5-((3-isopropyl-2,4-dioxothiazolidin-5-ylidene)methyl)furan-2-yl)thio)-1H-benzo[d]imidazol-6-yl)acetamide] the figure was 0.93 µM; with `COC(=O)c1ccc2nc(Sc3ccc(/C=C4\SC(=O)N(C(C)C)C4=O)o3)[nH]c2c1` [Compound 63, (Z)-methyl 2-((5-((3-isopropyl-2,4-dioxothiazolidin-5-ylidene)methyl)furan-2-yl)thio)-1H-benzo[d]imidazole-6-carboxylate], 1.49 µM; with `CC(C)N1C(=O)S/C(=C\c2ccc(Sc3nc4ccccc4[nH]3)cc2)C1=O` [Compound 64, (Z)-5-(4-((1H-benzo[d]imidazol-2-yl)thio)benzylidene)-3-isopropylthiazolidine-2,4-dione], 1.82 µM.
Still for that read-out and setting: in the case of `CC(C)N1C(=O)S/C(=C\c2cccc(Oc3nc4ccccc4[nH]3)c2)C1=O` [Compound 65, (Z)-5-(3-((1H-benzo[d]imidazol-2-yl)oxy)benzylidene)-3-isopropylthiazolidine-2,4-dione] it was 0.99 µM; in that of `O=C1CSC(=O)N1Cc1ccc(Sc2nc3ccccc3[nH]2)o1` [Compound 67, 3-((5-((1H-benzo[d]imidazol-2-yl)thio)furan-2-yl)methyl)thiazolidine-2,4-dione], 30 µM.
